Where “and” joins values, the source holds several entries; their conditions need not be identical. Equal values may be shown once.
Key:
Assay in all cases: radiometric filter-binding kinase assay
[1] = test system: AKT1 (human), P31749 [S473D]
[2] = test system: AKT2 (human), P31751 [S474D]
[3] = molecular target: AURKB (human) (UniProt Q96GD4)
[4] = molecular target: CAMKK2 (human) (UniProt Q96RR4)
[5] = molecular target: CHEK1 (human) (UniProt O14757)
[6] = molecular target: CSK (human) (UniProt P41240)
[7] = molecular target: CSNK2A1 (human) (UniProt P68400)
[8] = molecular target: FGFR1 (human) (UniProt P11362)
[9] = molecular target: IKBKB (human) (UniProt O14920)
[10] = molecular target: IKBKE (human) (UniProt Q14164)
[11] = molecular target: INSRR (human) (UniProt P14616)
[12] = molecular target: MAP3K1 (human) (UniProt Q13233)
[13] = molecular target: MAP3K9 (human) (UniProt P80192)
[14] = molecular target: MAPK10 (human) (UniProt P53779)
[15] = molecular target: MAPK15 (human) (UniProt Q8TD08)
[16] = molecular target: MAPK9 (human) (UniProt P45984)
[17] = molecular target: MAPKAPK2 (human) (UniProt P49137)
[18] = molecular target: MAPKAPK3 (human) (UniProt Q16644)
[19] = molecular target: MAPKAPK5 (human) (UniProt Q8IW41)
[20] = molecular target: MARK2 (human) (UniProt Q7KZI7)
[21] = test system: PAK2 (human), Q13177 [T402E]
[22] = molecular target: PAK7 (human) (UniProt Q9P286)
[23] = molecular target: PDPK1 (human) (UniProt O15530); conditions: compound 1.0 µM
[24] = molecular target: PIM1 (human) (UniProt P11309)
[25] = molecular target: PIM2 (human) (UniProt Q9P1W9)
[26] = molecular target: PIM3 (human) (UniProt Q86V86)
[27] = molecular target: RPS6KA1 KD1 KD2 (human) (UniProt Q15418)
[28] = molecular target: RPS6KA3 KD1 KD2 (human) (UniProt P51812)
[29] = molecular target: RPS6KA5 KD1 KD2 (human) (UniProt O75582)
[30] = test system: SGK1 (human), O00141 [S422D]
[31] = molecular target: STK11 CAB39 STRADA (human) (UniProt Q9Y376+Q7RTN6+Q15831)
[32] = molecular target: TTK (human) (UniProt P33981)
[33] = molecular target: YES1 (human) (UniProt P07947)
Sequence of YES1 (human) (P07947 whole entry, looked up): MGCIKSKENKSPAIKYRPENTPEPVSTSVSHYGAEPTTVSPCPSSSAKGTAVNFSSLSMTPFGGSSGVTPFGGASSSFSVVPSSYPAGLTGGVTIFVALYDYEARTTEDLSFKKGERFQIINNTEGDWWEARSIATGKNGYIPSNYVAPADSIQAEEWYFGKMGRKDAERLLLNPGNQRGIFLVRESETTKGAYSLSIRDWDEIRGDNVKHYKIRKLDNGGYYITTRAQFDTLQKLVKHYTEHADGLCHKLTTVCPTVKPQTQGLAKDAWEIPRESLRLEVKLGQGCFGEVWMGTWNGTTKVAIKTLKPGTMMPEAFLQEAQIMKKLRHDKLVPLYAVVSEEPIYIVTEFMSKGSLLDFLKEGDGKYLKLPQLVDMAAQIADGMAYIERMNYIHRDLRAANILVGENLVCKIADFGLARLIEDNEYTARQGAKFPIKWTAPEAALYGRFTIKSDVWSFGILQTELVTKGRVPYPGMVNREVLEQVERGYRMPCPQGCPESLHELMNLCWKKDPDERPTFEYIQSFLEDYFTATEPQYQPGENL

Sequence of AURKB (human) (Q96GD4 whole entry, looked up): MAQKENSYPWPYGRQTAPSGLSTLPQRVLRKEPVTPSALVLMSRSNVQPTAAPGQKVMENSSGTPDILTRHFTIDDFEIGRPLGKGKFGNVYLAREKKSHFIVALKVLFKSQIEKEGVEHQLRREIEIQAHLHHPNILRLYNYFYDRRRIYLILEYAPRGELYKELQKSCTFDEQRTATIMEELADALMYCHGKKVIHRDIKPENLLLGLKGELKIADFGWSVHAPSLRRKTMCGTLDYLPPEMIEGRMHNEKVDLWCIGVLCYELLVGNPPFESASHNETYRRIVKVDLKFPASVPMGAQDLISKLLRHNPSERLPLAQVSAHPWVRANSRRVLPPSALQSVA
Sequence of MAP3K1 (human) (Q13233 whole entry, looked up): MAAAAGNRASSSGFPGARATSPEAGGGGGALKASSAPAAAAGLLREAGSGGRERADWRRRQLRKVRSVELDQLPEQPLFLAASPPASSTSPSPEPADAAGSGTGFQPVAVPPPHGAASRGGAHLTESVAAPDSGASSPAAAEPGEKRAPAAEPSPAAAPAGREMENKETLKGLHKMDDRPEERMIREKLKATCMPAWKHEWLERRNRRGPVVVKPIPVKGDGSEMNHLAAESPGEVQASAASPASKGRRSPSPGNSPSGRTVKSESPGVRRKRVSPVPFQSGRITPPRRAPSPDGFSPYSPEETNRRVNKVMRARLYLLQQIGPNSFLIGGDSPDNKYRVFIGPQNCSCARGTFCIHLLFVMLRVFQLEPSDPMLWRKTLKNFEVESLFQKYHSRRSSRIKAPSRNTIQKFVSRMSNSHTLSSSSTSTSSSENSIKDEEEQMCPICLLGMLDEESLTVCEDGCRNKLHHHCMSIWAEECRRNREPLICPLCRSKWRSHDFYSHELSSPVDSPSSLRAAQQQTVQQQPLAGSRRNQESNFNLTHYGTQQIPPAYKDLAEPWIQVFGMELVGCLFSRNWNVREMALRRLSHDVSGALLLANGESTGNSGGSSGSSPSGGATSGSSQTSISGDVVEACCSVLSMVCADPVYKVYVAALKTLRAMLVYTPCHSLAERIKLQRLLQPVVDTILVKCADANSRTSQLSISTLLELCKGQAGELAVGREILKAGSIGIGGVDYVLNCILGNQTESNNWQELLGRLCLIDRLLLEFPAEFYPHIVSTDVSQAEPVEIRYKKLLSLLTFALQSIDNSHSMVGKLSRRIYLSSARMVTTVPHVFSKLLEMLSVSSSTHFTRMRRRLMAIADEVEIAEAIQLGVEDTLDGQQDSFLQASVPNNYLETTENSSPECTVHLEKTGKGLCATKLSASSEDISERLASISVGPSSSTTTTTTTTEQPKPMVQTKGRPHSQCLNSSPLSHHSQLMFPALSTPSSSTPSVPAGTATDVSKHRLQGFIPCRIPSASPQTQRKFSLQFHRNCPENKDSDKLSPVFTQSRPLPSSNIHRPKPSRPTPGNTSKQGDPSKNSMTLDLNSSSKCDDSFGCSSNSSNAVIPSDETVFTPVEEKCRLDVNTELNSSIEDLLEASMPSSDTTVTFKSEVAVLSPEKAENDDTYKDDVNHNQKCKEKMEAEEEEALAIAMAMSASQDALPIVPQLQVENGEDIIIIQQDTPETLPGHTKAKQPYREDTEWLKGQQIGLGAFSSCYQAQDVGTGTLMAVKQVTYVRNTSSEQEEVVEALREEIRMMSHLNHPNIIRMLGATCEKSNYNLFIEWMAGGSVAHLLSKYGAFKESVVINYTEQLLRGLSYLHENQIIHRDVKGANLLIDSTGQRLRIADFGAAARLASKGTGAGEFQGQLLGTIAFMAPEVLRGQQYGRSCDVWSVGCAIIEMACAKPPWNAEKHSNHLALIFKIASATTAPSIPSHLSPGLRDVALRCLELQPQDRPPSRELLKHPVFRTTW
Sequence of PIM2 (human) (Q9P1W9 whole entry, looked up): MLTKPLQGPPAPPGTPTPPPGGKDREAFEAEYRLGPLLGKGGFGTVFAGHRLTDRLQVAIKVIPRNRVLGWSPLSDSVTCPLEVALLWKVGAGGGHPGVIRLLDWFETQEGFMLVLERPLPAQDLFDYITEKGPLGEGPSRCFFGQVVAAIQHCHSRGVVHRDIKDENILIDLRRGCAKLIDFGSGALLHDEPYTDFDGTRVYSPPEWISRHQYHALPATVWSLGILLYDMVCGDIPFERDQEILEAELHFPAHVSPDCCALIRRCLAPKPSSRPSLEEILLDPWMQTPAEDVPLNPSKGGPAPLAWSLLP
Sequence of TTK (human) (P33981 whole entry, looked up): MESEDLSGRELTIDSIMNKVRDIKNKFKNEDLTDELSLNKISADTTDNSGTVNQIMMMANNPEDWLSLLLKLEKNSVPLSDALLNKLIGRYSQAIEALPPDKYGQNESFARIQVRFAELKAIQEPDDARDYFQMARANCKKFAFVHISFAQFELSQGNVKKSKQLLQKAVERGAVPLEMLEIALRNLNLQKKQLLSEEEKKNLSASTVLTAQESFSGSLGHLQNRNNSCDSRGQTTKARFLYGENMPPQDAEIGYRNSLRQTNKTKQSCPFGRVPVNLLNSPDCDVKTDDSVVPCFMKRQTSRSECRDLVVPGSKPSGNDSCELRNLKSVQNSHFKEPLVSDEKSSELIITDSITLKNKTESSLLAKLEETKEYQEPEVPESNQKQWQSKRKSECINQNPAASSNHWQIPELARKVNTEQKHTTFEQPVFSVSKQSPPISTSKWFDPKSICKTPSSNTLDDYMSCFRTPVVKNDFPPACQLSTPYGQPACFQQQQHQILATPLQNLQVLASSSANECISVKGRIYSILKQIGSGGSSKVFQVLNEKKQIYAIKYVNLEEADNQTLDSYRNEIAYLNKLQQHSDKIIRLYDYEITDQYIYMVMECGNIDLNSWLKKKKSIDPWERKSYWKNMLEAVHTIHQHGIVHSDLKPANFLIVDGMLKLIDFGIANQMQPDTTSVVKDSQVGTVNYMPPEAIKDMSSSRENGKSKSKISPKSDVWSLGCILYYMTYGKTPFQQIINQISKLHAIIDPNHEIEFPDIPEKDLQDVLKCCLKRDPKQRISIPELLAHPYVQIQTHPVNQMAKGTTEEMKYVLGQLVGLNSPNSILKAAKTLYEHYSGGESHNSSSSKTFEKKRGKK
Sequence of PIM1 (human) (P11309 whole entry, looked up): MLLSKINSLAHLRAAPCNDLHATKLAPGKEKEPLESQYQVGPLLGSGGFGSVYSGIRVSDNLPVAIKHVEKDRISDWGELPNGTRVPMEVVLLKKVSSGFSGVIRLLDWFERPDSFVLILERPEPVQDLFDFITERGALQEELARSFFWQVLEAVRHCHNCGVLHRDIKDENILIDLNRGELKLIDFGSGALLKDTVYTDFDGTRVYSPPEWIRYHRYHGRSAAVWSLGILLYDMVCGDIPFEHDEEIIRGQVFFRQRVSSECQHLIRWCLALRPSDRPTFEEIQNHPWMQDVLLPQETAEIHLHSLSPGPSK
Sequence of RPS6KA1 KD1 KD2 (human) (Q15418 whole entry, looked up): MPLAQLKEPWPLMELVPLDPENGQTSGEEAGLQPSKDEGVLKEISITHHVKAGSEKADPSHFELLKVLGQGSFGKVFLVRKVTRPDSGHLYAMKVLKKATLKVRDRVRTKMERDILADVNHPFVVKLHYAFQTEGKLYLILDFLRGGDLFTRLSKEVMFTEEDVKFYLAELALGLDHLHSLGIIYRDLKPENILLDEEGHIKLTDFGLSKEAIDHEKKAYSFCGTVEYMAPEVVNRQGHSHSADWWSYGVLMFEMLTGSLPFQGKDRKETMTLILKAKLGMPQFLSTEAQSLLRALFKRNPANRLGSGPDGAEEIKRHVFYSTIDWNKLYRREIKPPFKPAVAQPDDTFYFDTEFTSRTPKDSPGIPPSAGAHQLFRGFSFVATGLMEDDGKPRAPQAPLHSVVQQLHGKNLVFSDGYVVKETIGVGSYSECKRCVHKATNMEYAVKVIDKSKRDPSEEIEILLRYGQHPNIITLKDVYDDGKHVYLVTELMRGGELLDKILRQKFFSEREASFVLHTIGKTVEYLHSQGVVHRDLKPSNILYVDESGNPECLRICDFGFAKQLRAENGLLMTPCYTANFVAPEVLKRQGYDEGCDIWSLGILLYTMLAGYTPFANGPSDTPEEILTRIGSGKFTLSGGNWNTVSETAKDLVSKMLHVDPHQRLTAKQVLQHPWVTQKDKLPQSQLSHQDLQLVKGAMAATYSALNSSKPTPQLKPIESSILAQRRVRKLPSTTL
Sequence of MAPKAPK3 (human) (Q16644 whole entry, looked up): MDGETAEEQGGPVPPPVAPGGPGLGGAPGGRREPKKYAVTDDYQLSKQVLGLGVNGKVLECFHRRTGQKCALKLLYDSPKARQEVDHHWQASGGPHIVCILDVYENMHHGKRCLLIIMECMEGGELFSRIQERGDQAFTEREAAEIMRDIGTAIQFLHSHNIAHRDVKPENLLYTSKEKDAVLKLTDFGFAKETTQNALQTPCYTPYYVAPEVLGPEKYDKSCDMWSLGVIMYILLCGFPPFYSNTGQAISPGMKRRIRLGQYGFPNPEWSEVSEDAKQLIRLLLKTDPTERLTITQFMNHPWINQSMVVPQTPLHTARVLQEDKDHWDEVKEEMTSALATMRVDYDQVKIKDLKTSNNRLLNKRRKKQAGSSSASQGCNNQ

For COc1cc(C(=O)N2CCC(N3CCN(C)CC3)CC2)ccc1Nc1ncc2c(n1)N(C)c1ccccc1C(=O)N2C, which residual activity ([1]; compound 1.0 µM) is on record?
The residual activity was 71%.

And the residual activity ([1]; compound 10.0 µM)?
Its residual activity is 81%.

And the residual activity ([2]; compound 1.0 µM)?
Its residual activity is 93%.

What about the residual activity ([2]; compound 10.0 µM) of the same compound?
The residual activity was 79%.

And the IC50 [3]?
The IC50 was 1100 nM.

What about the residual activity ([3]; compound 1.0 µM) of the same compound?
Its residual activity is 64%.

What about the residual activity ([3]; compound 10.0 µM) of the same compound?
The residual activity was 28%.

What about the residual activity ([4]; compound 1.0 µM) of the same compound?
The residual activity was 89%.

And the residual activity ([4]; compound 10.0 µM)?
Its residual activity is 53%.

And the residual activity ([5]; compound 1.0 µM)?
The residual activity was 82%.

What about the residual activity ([5]; compound 10.0 µM) of the same compound?
The residual activity was 96%.

What about the residual activity ([6]; compound 1.0 µM) of the same compound?
The residual activity was 70%.

What about the residual activity ([6]; compound 10.0 µM) of the same compound?
Its residual activity is 80%.

And the residual activity ([7]; compound 1.0 µM)?
Its residual activity is 71%.

And the residual activity ([7]; compound 10.0 µM)?
Its residual activity is 80%.

And the residual activity ([8]; compound 1.0 µM)?
Its residual activity is 83%.

And the residual activity ([8]; compound 10.0 µM)?
Its residual activity is 60%.

And the residual activity ([9]; compound 1.0 µM)?
Its residual activity is 103%.

What about the residual activity ([9]; compound 10.0 µM) of the same compound?
The residual activity was 106%.

And the residual activity ([10]; compound 1.0 µM)?
The residual activity was 76%.

And the residual activity ([10]; compound 10.0 µM)?
Its residual activity is 88%.

And the residual activity ([11]; compound 1.0 µM)?
Its residual activity is 80%.

And the residual activity ([11]; compound 10.0 µM)?
Its residual activity is 91%.

What about the residual activity ([12]; compound 1.0 µM) of the same compound?
The residual activity was 87%.

And the residual activity ([12]; compound 10.0 µM)?
Its residual activity is 83%.

What about the residual activity ([13]; compound 1.0 µM) of the same compound?
Its residual activity is 87%.

What about the residual activity ([13]; compound 10.0 µM) of the same compound?
The residual activity was 96%.

And the residual activity ([14]; compound 1.0 µM)?
The residual activity was 92%.

What about the residual activity ([14]; compound 10.0 µM) of the same compound?
The residual activity was 109%.

What about the residual activity ([15]; compound 1.0 µM) of the same compound?
Its residual activity is 86%.

What about the residual activity ([15]; compound 10.0 µM) of the same compound?
The residual activity was 104%.

And the residual activity ([16]; compound 1.0 µM)?
The residual activity was 79%.

What about the residual activity ([16]; compound 10.0 µM) of the same compound?
Its residual activity is 98%.

And the residual activity ([17]; compound 1.0 µM)?
Its residual activity is 86%.

What about the residual activity ([17]; compound 10.0 µM) of the same compound?
The residual activity was 84%.

What about the residual activity ([18]; compound 1.0 µM) of the same compound?
Its residual activity is 85%.

What about the residual activity ([18]; compound 10.0 µM) of the same compound?
Its residual activity is 89%.

What about the residual activity ([19]; compound 1.0 µM) of the same compound?
The residual activity was 102%.

And the residual activity ([19]; compound 10.0 µM)?
The residual activity was 107%.

What about the residual activity ([20]; compound 1.0 µM) of the same compound?
Its residual activity is 62%.

And the residual activity ([20]; compound 10.0 µM)?
The residual activity was 72%.

And the residual activity ([21]; compound 1.0 µM)?
The residual activity was 97%.

And the residual activity ([21]; compound 10.0 µM)?
Its residual activity is 110%.

What about the residual activity ([22]; compound 1.0 µM) of the same compound?
The residual activity was 84%.

And the residual activity ([22]; compound 10.0 µM)?
Its residual activity is 89%.

And the residual activity [23]?
The residual activity was 68% and 74%.

And the residual activity ([24]; compound 1.0 µM)?
Its residual activity is 94%.

What about the residual activity ([24]; compound 10.0 µM) of the same compound?
The residual activity was 87%.

And the residual activity ([25]; compound 1.0 µM)?
Its residual activity is 87%.

What about the residual activity ([25]; compound 10.0 µM) of the same compound?
The residual activity was 97%.

What about the residual activity ([26]; compound 1.0 µM) of the same compound?
The residual activity was 97%.

What about the residual activity ([26]; compound 10.0 µM) of the same compound?
Its residual activity is 76%.

And the residual activity ([27]; compound 1.0 µM)?
The residual activity was 97%.

What about the residual activity ([27]; compound 10.0 µM) of the same compound?
Its residual activity is 367%.

What about the residual activity ([28]; compound 1.0 µM) of the same compound?
The residual activity was 84%.

And the residual activity ([28]; compound 10.0 µM)?
The residual activity was 59%.

And the residual activity ([29]; compound 1.0 µM)?
The residual activity was 79%.

What about the residual activity ([29]; compound 10.0 µM) of the same compound?
The residual activity was 84%.

And the residual activity ([30]; compound 1.0 µM)?
The residual activity was 75%.

And the residual activity ([30]; compound 10.0 µM)?
Its residual activity is 89%.

What about the residual activity ([31]; compound 1.0 µM) of the same compound?
Its residual activity is 78%.

And the residual activity ([31]; compound 10.0 µM)?
The residual activity was 78%.

What about the residual activity ([32]; compound 1.0 µM) of the same compound?
Its residual activity is 84%.

What about the residual activity ([32]; compound 10.0 µM) of the same compound?
The residual activity was 91%.

What about the residual activity ([33]; compound 1.0 µM) of the same compound?
The residual activity was 86%.

What about the residual activity ([33]; compound 10.0 µM) of the same compound?
Its residual activity is 82%.
